In patent publication US9192672B2, “Zwitterion solution for low-volume therapeutic delivery” (Wayne State University Board of Governors, priority 2007, dated 2015):
≈ marks a conversion by molar mass, not a printed value.

Legend:
[1] = physchem; details: aqueous buffer, thermodynamic from solid
[2] = Solubility in saline; assay type: physicochemical; details: for solubility: saline, saline or isotonic
[3] = physchem; details: saline or isotonic, thermodynamic from solid
[4] = Solubility in artificial cerebrospinal fluid (aCSF); details: Table 2, artificial CSF
[5] = cited from earlier work
[6] = artificial cerebrospinal fluid (aCSF)

Compound	solubility [1]	solubility ([1]; MPI solution or aCSF)	solubility ([2]; Table 2, saline)	Solubility In Artificial CSF [4]	other results
NC1C2CN(c3nc4c(cc3F)c(=O)c(C(=O)O)cn4-c3ccc(F)cc3F)CC12 (stereo not shown) [7-(6-amino-3-aza-bicyclo[3.1.0]hex-3-yl)-1-(2,4-difluoro-phenyl)-6-fluoro-4-oxo-1,4-dihydro-[1,8]naphthyridine-3-carboxylic acid]	> 205 µg/mL				
CC(Cc1ccc(OCC(=O)O)cc1)NCC(O)c1csc(C(F)(F)F)n1 (stereo not shown) [(4-{2-[2-hydroxy-2-(2-trifluoromethyl-thiazol-4-yl)-ethylamino]-propyl}-phenoxy)-acetic acid]	> 205 µg/mL				
CCOC(=O)C1=C(COCCNC(=O)/C=C\C(=O)O)NC(C)=C(C(=O)OC)C1c1ccccc1Cl (stereo not shown) [(Z)-4-[(2-{[4-(2-chlorophenyl)-3-(ethoxycarbonyl)-5-(methoxycarbonyl)-6-methyl-1,4-dihydro-2-pyridinyl]methoxy}ethyl)amino]-4-oxo-2-butenoic acid]		> 205 µg/mL			
CO/N=C(\C(=O)N[C@@H]1C(=O)N2C(C(=O)O)=C(CSc3nc(=O)c(=O)[nH]n3C)CS[C@H]12)c1csc(N)n1 [Ceftriaxone, ceftriaxone]		> 205 µg/mL	205 µg/mL (≈ 370 µM)	>250 µg/mL	solubility ([2]; Table 1, saline): 205 µg/mL (≈ 370 µM); solubility ([2]; text of Examples 8-14): 205 µg/mL (≈ 370 µM); solubility [3, 6]: > 250 µg/mL; solubility ([1]; multivalent physiologic ion (MPI) solution): ≥ 700 µg/mL
NCC(CC(=O)O)c1ccc(Cl)cc1 (stereo not shown) [baclofen]					Concentration achieved in aCSF ([5]; differing forms of aCSF, earlier in vivo studies): less than 0.21 mg/ml; Solubility in aqueous saline solution ([5]; extreme heating at 100° Celsius, sonication, high speed stirring, US 2006/0009523): ≤ 12000 µg/mL; Concentration by back titration method ([5]; initial dissolution in acid pH below 3.87, then base, US 2006/0009523): ~10000 µg/mL
C=CC1=C(C(=O)O)N2C(=O)[C@@H](NC(=O)/C(=N\O)c3csc(N)n3)[C@H]2SC1 [cefdinir]	> 205 µg/mL				
CO/N=C(\C(=O)N[C@@H]1C(=O)N2C(C(=O)[O-])=C(C[N+]3(C)CCCC3)CS[C@H]12)c1csc(N)n1 [cefepime]	> 205 µg/mL		66 µg/mL (≈ 137 µM)		solubility [3]: > 78 µg/mL

The next lines start with results.

solubility [1]	solubility ([1]; MPI solution or aCSF)	solubility ([2]; Table 2, saline)	Solubility In Artificial CSF [4]	Compound	other results
	> 205 µg/mL	55 µg/mL (≈ 121 µM)	>80 µg/mL	C=CC1=C(C(=O)O)N2C(=O)[C@@H](NC(=O)/C(=N\OCC(=O)O)c3csc(N)n3)[C@H]2SC1 [cefixime]	Solubility In Saline ([2]; Table 2, saline): 68 µg/mL (≈ 150 µM); solubility [3, 6]: > 72 µg/mL
> 205 µg/mL				COCC1=C(C(=O)O)N2C(=O)[C@@H](NC(=O)/C(=N\OC)c3csc(N)n3)[C@H]2SC1 [cefpodoxime]	
			>1200 µg/mL	CC(=O)OCC1=C(C(=O)O)N2C(=O)[C@@H](NC(=O)CSc3ccncc3)[C@H]2SC1 [cephaprine]	Solubility In Saline ([2]; Table 2, saline): 1000 µg/mL (≈ 2360 µM)
